Assay results as given in PMC2206373, “Identification of an altered peptide ligand based on the endogenously presented, rheumatoid arthritis-associated, human cartilage glycoprotein-39(263–275) epitope: an MHC anchor variant peptide for immune modulation” (Arthritis Research & Therapy, 2007).
pIC50: −log10 of the molar value. Like-named read-outs stand apart in the source and are kept apart here. One block for each compound: values may come before it. Non-standard residues stand in square brackets, D forms with d. Residues, ends and D or L forms follow the SMILES beside them. No end group written: not given here. *: point of attachment. Phe(4-NO2) = N[C@@H](Cc1ccc([N+](=O)[O-])cc1)C(=O)O; Phe(4-Cl) = N[C@@H](Cc1ccc(Cl)cc1)C(=O)O; Phe(4-F) = N[C@@H](Cc1ccc(F)cc1)C(=O)O; Phe(4-I) = N[C@@H](Cc1ccc(I)cc1)C(=O)O; hPhe = N[C@@H](CCc1ccccc1)C(=O)O; 3Pal = N[C@@H](Cc1cccnc1)C(=O)O; 2Thi = N[C@@H](Cc1cccs1)C(=O)O; Cha = N[C@@H](CC1CCCCC1)C(=O)O; Bn = c1ccc(C*)cc1

Assays:
HLA-DR4(B1*0401) = HLA-DR4(B1*0401) (Homo sapiens, UniProt P01903+P01911, A100K/A169T/F76Y/I96L/K127E/L162R/M171V/N62H/P40V/Q125Y/R42H/S133A/S149N/S66Y/V115G/V209L/W38E); assay: HLA-DR4 competition peptide binding assay; conditions: competition with biotinylated HA307-319 (Y309F) 50 nM, purified HLA-DR4 30 nM, pH 5, 48 h, room temperature
Experimental: HLA-DR bound marker peptide was separated from free marker peptide and the amount of bound marker peptide was detected and quantified by enhanced chemoluminescense. Inhibition curves were generated and the IC50 was determined. The concentration of competitor peptide inducing 50% inhibition of marker peptide binding was determined, and expressed as the 50% inhibitory concentration (IC50 in μM).

T cell hybridoma 5G11 = assay: T hybridoma 5G11 IL-2 response; type: cell-based, mouse; conditions: Figure 1; IL-2 production, DRB1*0401 BLCL as APC; duplicate or triplicate; background 29,203 counts; ±30% of WT response = super/partial agonist
Experimental: (§1) The T cell hybridomas, provided by G Sonderstrup (Stanford, CA, USA), were generated as described. In brief, human CD4, HLA-DRA*101/HLA-DRB*0401 triple transgenic (HLA-DR4trg) mice (devoid of I-Aβ) were immunized in the footpad with 50 μg of purified HC gp-39 mixed in incomplete Freund's adjuvant (IFA). Draining lymph nodes were isolated and T-cell hybridomas were generated by polyethylene glycol fusion of primed and in vitro antigen-restimulated lymph node cells with the AKR BW5147 fusion partner. Following fusion, growth-positive hybridoma wells were screened for reactivity to HC gp-39 and a set of 55 peptides (16 amino acids in length) covering the entire HC gp-39 sequence. HLA-DR4(B1*0401)-restricted hybridomas responsive to both the HC gp-39 protein and the immunodominant epitope 263–275 of HC gp-39 (for example, 5G11, 8B12, 14G11 and 20H5) were cloned, subcloned, characterised and selected for further study.
(§2) HC gp-39-specific IL-2 production by T hybridomas was measured in wells of round-bottomed microtiter plates. Hybridoma cells (2 to 5 × 10^4) and irradiated APC (0.5 to 1 × 10^5; 12,000 to 16,000 RAD) from the B lymphoblastoid cell line (BLCL) carrying the DRB1*0401 specificity were incubated in 150 μl volumes. Antigen was added in 50 μl volumes to duplicate wells. After 48 h, 100 μl of the culture supernatant was assayed for IL-2 production using a sandwich ELISA with Pharmingen antibodies specific for mouse IL-2. The antigen sensitivity of the hybridomas to both peptide and protein was determined (Figure 2). […] In later assays, an excess of peptide or APL (10 μg/ml), inducing maximal responses in all hybridomas, was tested.

T cell hybridoma 8B12 = assay: T hybridoma 8B12 IL-2 response; type: cell-based, mouse; conditions: Figure 1; IL-2 production, DRB1*0401 BLCL as APC; duplicate or triplicate; background 16,288 counts; ±30% of WT response = super/partial agonist
Experimental: as §1, §2

T cell hybridoma 14G11 = assay: T hybridoma 14G11 IL-2 response; type: cell-based, mouse; conditions: Figure 1; IL-2 production, DRB1*0401 BLCL as APC; duplicate or triplicate; background 7,152 counts; ±30% of WT response = super/partial agonist
Experimental: as §1, §2

[1] = Figure 1, read-out: DRB1*0401 binding IC50
[2] = Table 2, read-out: HLA-DR binding IC50
[3] = Table 1, geometric mean of two experiments, read-out: HLA-DR binding IC50

Compound: CC(C)C[C@H](NC(=O)[C@@H](NC(=O)[C@H](CCc1ccccc1)NC(=O)[C@H](CO)NC(=O)[C@@H](N)CCCNC(=N)N)[C@@H](C)O)C(=O)N[C@@H](C)C(=O)N[C@@H](CO)C(=O)N[C@@H](CO)C(=O)N[C@@H](CCC(=O)O)C(=O)N[C@H](C(=O)NCC(=O)N[C@H](C(=O)NCC(=O)O)C(C)C)[C@@H](C)O [Compound 24] (H-RS[hPhe]TLASSETGVG-OH)
pIC50 (HLA-DR4(B1*0401); [1]): 7.82

Compound: CC(C)C[C@H](NC(=O)[C@@H](NC(=O)[C@H](CC1CCCCC1)NC(=O)[C@H](CO)NC(=O)[C@@H](N)CCCNC(=N)N)[C@@H](C)O)C(=O)N[C@@H](C)C(=O)N[C@@H](CO)C(=O)N[C@@H](CO)C(=O)N[C@@H](CCC(=O)O)C(=O)N[C@H](C(=O)NCC(=O)N[C@H](C(=O)NCC(=O)O)C(C)C)[C@@H](C)O [Compound 25] (H-RS[Cha]TLASSETGVG-OH)
pIC50 (HLA-DR4(B1*0401); [1]): 8.15
T hybridoma (SI) 5G11 (T cell hybridoma 5G11): 32 SI
T hybridoma (SI) 8B12 (T cell hybridoma 8B12): 18 SI
T hybridoma (SI) 14G11 (T cell hybridoma 14G11): 26 SI

Compound: CC(C)C[C@H](NC(=O)[C@@H](NC(=O)[C@H](Cc1cccs1)NC(=O)[C@H](CO)NC(=O)[C@@H](N)CCCNC(=N)N)[C@@H](C)O)C(=O)N[C@@H](C)C(=O)N[C@@H](CO)C(=O)N[C@@H](CO)C(=O)N[C@@H](CCC(=O)O)C(=O)N[C@H](C(=O)NCC(=O)N[C@H](C(=O)NCC(=O)O)C(C)C)[C@@H](C)O [Compound 26] (H-RS[2Thi]TLASSETGVG-OH)
pIC50 (HLA-DR4(B1*0401); [1]): 8.05
T hybridoma (SI) 5G11 (T cell hybridoma 5G11): 23 SI
T hybridoma (SI) 8B12 (T cell hybridoma 8B12): 18 SI
T hybridoma (SI) 14G11 (T cell hybridoma 14G11): 31 SI

Compound: CC(C)C[C@H](NC(=O)[C@@H](NC(=O)[C@H](Cc1cccnc1)NC(=O)[C@H](CO)NC(=O)[C@@H](N)CCCNC(=N)N)[C@@H](C)O)C(=O)N[C@@H](C)C(=O)N[C@@H](CO)C(=O)N[C@@H](CO)C(=O)N[C@@H](CCC(=O)O)C(=O)N[C@H](C(=O)NCC(=O)N[C@H](C(=O)NCC(=O)O)C(C)C)[C@@H](C)O [Compound 29] (H-RS[3Pal]TLASSETGVG-OH)
pIC50 (HLA-DR4(B1*0401); [1]): 7.80
T hybridoma (SI) 5G11 (T cell hybridoma 5G11): 23 SI
T hybridoma (SI) 8B12 (T cell hybridoma 8B12): 19 SI
T hybridoma (SI) 14G11 (T cell hybridoma 14G11): 44 SI

Compound: CC(C)C[C@H](NC(=O)[C@@H](NC(=O)[C@H](Cc1ccc(Cl)cc1)NC(=O)[C@H](CO)NC(=O)[C@@H](N)CCCNC(=N)N)[C@@H](C)O)C(=O)N[C@@H](C)C(=O)N[C@@H](CO)C(=O)N[C@@H](CO)C(=O)N[C@@H](CCC(=O)O)C(=O)N[C@H](C(=O)NCC(=O)N[C@H](C(=O)NCC(=O)O)C(C)C)[C@@H](C)O [Compound 31] (H-RS[Phe(4-Cl)]TLASSETGVG-OH)
pIC50 (HLA-DR4(B1*0401); [1]): 8.05
T hybridoma (SI) 5G11 (T cell hybridoma 5G11): 32 SI
T hybridoma (SI) 8B12 (T cell hybridoma 8B12): 14 SI
T hybridoma (SI) 14G11 (T cell hybridoma 14G11): 29 SI

Compound: CC(C)C[C@H](NC(=O)[C@@H](NC(=O)[C@H](Cc1ccc(I)cc1)NC(=O)[C@H](CO)NC(=O)[C@@H](N)CCCNC(=N)N)[C@@H](C)O)C(=O)N[C@@H](C)C(=O)N[C@@H](CO)C(=O)N[C@@H](CO)C(=O)N[C@@H](CCC(=O)O)C(=O)N[C@H](C(=O)NCC(=O)N[C@H](C(=O)NCC(=O)O)C(C)C)[C@@H](C)O [Compound 33] (H-RS[Phe(4-I)]TLASSETGVG-OH)
pIC50 (HLA-DR4(B1*0401); [1]): > 8.05
T hybridoma (SI) 5G11 (T cell hybridoma 5G11): 26 SI

Compound: ASFTLASSETGVG [Compound 10]
pIC50 (HLA-DR4(B1*0401); [2]): 7.00

Compound: FTLASSETGVG [Compound 6]
pIC50 (HLA-DR4(B1*0401); [3]): 6.96

Compound: RSFALASSETGVG [Compound 13]
pIC50 (HLA-DR4(B1*0401); [2]): 7.22

Compound: RSFTLAASETGVG [Compound 16]
pIC50 (HLA-DR4(B1*0401); [2]): 7.30

Compound: RSFTLASSATGVG [Compound 18]
pIC50 (HLA-DR4(B1*0401); [2]): 7.40

Compound: RSFTLASSEAGVG [Compound 19]
pIC50 (HLA-DR4(B1*0401); [2]): 7.40

Compound: RSFTLASSET [Compound 4]
pIC50 (HLA-DR4(B1*0401); [3]): 5.15

Compound: RSFTLASSETG [Compound 3]
pIC50 (HLA-DR4(B1*0401); [3]): 6.70

Compound: RSFTLASSETGAG [Compound 21]
pIC50 (HLA-DR4(B1*0401); [2]): 7.22

Compound: RSFTLASSETGVA [Compound 22]
pIC50 (HLA-DR4(B1*0401); [2]): 7.30

More lines, main results first:

pIC50 (HLA-DR4(B1*0401); [1]): 7.92
Compound: CC(C)C[C@H](NC(=O)[C@@H](NC(=O)[C@H](Cc1ccc(F)cc1)NC(=O)[C@H](CO)NC(=O)[C@@H](N)CCCNC(=N)N)[C@@H](C)O)C(=O)N[C@@H](C)C(=O)N[C@@H](CO)C(=O)N[C@@H](CO)C(=O)N[C@@H](CCC(=O)O)C(=O)N[C@H](C(=O)NCC(=O)N[C@H](C(=O)NCC(=O)O)C(C)C)[C@@H](C)O [Compound 30] (H-RS[Phe(4-F)]TLASSETGVG-OH)
T hybridoma (SI) 5G11 (T cell hybridoma 5G11): 29 SI
T hybridoma (SI) 8B12 (T cell hybridoma 8B12): 17 SI
T hybridoma (SI) 14G11 (T cell hybridoma 14G11): 27 SI

pIC50 (HLA-DR4(B1*0401); [1]): 7.89
Compound: CC(C)C[C@H](NC(=O)[C@@H](NC(=O)[C@H](Cc1ccc([N+](=O)[O-])cc1)NC(=O)[C@H](CO)NC(=O)[C@@H](N)CCCNC(=N)N)[C@@H](C)O)C(=O)N[C@@H](C)C(=O)N[C@@H](CO)C(=O)N[C@@H](CO)C(=O)N[C@@H](CCC(=O)O)C(=O)N[C@H](C(=O)NCC(=O)N[C@H](C(=O)NCC(=O)O)C(C)C)[C@@H](C)O [Compound 34] (H-RS[Phe(4-NO2)]TLASSETGVG-OH)
T hybridoma (SI) 5G11 (T cell hybridoma 5G11): 32 SI
T hybridoma (SI) 8B12 (T cell hybridoma 8B12): 20 SI
T hybridoma (SI) 14G11 (T cell hybridoma 14G11): 33 SI

pIC50 (HLA-DR4(B1*0401); [1]): 8.15
Compound: CC(C)C[C@H](NC(=O)[C@@H](NC(=O)[C@H](COCc1ccccc1)NC(=O)[C@H](CO)NC(=O)[C@@H](N)CCCNC(=N)N)[C@@H](C)O)C(=O)N[C@@H](C)C(=O)N[C@@H](CO)C(=O)N[C@@H](CO)C(=O)N[C@@H](CCC(=O)O)C(=O)N[C@H](C(=O)NCC(=O)N[C@H](C(=O)NCC(=O)O)C(C)C)[C@@H](C)O [Compound 35] (H-RSS(Bn)TLASSETGVG-OH)
T hybridoma (SI) 5G11 (T cell hybridoma 5G11): 28 SI
T hybridoma (SI) 8B12 (T cell hybridoma 8B12): 20 SI
T hybridoma (SI) 14G11 (T cell hybridoma 14G11): 31 SI

pIC50 (HLA-DR4(B1*0401); [2]): 7.00
Compound: RAFTLASSETGVG [Compound 11]

pIC50 (HLA-DR4(B1*0401); [2]): 7.10
Compound: RSFTAASSETGVG [Compound 14]

pIC50 (HLA-DR4(B1*0401); [2]): 7.30
Compound: RSFTLASAETGVG [Compound 17]

pIC50 (HLA-DR4(B1*0401); [2]): 7.30
Compound: RSFTLASSETAVG [Compound 20]

pIC50 (HLA-DR4(B1*0401); [3]): 7.05
Compound: RSFTLASSETGV [Compound 2]

pIC50 (HLA-DR4(B1*0401); [3]): 6.92
Compound: SFTLASSETGV [Compound 9]

pIC50 (HLA-DR4(B1*0401); [3]): 7.05
Compound: SFTLASSETGVG [Compound 5]
